# According to publication PMC2365028, “Transepithelial Transport and Metabolism of Boronated Dipeptides Across Caco-2 and HCT-8 Cell Monolayers” (Metal-Based Drugs, 1996):
# Values joined by “and” are separate entries in the source; they are usually repeats but may differ in a detail not shown here. Equal values may be shown once.
# Tests used:
# [1] = Stability in HBSS/HEPES buffer and apical/basal media without the Transwell system; assay type: physicochemical; conditions: HBSS/HEPES buffer pH 7.4, 37C, or apical and basal media
# Caco-2 cell monolayers [2] = assay: Apical-to-basal transport and metabolism across Caco-2 cell monolayers (Transwell); conditions: for % Mass Balance / % Mass Transported / % Mass in Apical Side / Pseudo first-order rate constant k + SD / Apparent permeability coefficient Pe + SD / % Ester in the basal compartment / % FA (corresponding free acid) in the basal compartment: 4 h; for % Ester in the basal compartment / % FA (corresponding free acid) in the basal compartment: Table 9, side-by-side experiment; for mode of transport across the monolayer / compound recovered after transport through Caco-2 cell monolayers: apical-to-basal; for recovery after quantitating the free acids at the conclusion of transport experiments: ester plus free acid
# Source text: (§1) TRANSEPITHELIAL TRANSPORT AND METABOLISM OF BORONATED DIPEPTIDES ACROSS CACO-2 AND HCT-8 CELL MONOLAYERS Amy L. Elkins,John G. Eley,3, Merrill C. […] This study examined the effect of boronation on the transepithelial transport and metabolism of three glycine-phenylalanine dipeptides in Caco-2 and HCT-8 cell monolayers. […] Oral delivery of proteins and peptides as therapeutic agents is problematic due to their low bioavailability. This is mainly due to both their poor permeability across cellular barriers and to enzymatic degradation that occurs in the gut lumen, brush border, and enterocyte cytoplasm (2). […] Such as a substitution may also have the potential to alter the in vivo bioavailability of dipeptides. […] This study was undertaken to determine the effect of boronation on the transepithelial transport and metabolism of three glycine-phenylalanine dipeptides. […] Caco-2 cells are human colon adenocarcinoma cells first isolated from a primary colonic tumor (4). The cell line undergoes spontaneous enterortic differentiation in culture after reaching cotfflucnce, and morphologically resembles small intestinal epitheliun after three xveeks in culture (5). These morphological characteristics include the development of a brush border region expressing microvilli, occluding junctions, dome formations, and the formation of tight junctions leading to cell polarity. […] The cell line expresses a dipeptide carrier transport system in both the apical and basal membranes (9-10). […] HCT-8 cells are human adenocarcinoma cells from the ileocecal region; as such, these cells may give a truer reflection of gut absorption compared to Caco-2 cells which are derived from the colonic region. The cells produce a polarized differentiated monolayer consisting of enterocyte-like columnar cells that are interconnected by mature tightjunctions and desmosomes and exposed microvilla (11). The structural and functional integrity of the tight junctions of cells grown on polyester filter cups (Falcon, BD) and membrane filter inserts (Transwell(R), Costar) have been confirmed by transmission electron microscopy, transepithelial electrical resistance measurements, and transport of impermeant markers such as mannitol and polyethylene glycol (11, 12). […] Compound//was donated by Boron Biologicals, Inc., Raleigh, NC. Compound 111 was synthesized as follows: L-phenylalanine methyl ester hydrochloride (2.09 g, 9.7 mmol) and dimethylglycine (1 g, 9.7 retool) xvere suspended in 30 ml dry tetrahydrofuran with 10 mmol of triethylamine, dicyclohexyl-carbodiinfide and hydrox3'benzotriazole. The reaction was stirred at room temperature for 48 hours under nitrogen and the solvent was removed under reduced pressure. The product was purified on silica gel, two void volumes of hexane, two void volumes hexane/ethanol (8'1), and then hexane/ethanol (5:1). […] For the transport studies, cells were diluted with growth medium to give a total of […] cells/cm in 1.5 mls. The 1.5 ntis was placed in the apical compartment of a Transwcll(R) (Costar). The Transxvell(R) system is a 6-well plate with each well having an apical compartment capacity of 1.5 ntis, a basal compartment capacity of 2.5 ntis, and a 4.71 cm polycarbonate microporous (0.45 gin) membrane separating the two compartments. Cell monolayers in the Transwell(R) were allowed to grow for 21 days while the medium was replaced every 3 days. The cells were grown in Dulbecco's Modified Eagle Medium (D-MEM) containing L-glutamine and sodium pyruvate at 37C under 5% CO-. and saturated humidity. Additives to the medium included 10% heat- inactivated fetal bovine serum, 10 mM nonessential amino acids, 100 units of penicillin and 100 mg of streptomycin per ml of medium. 278 A.L. Elkins, J.G. Eley, M.C.
# HCT-8 cell monolayers = assay: Apical-to-basal transport across HCT-8 cell monolayers (Transwell)
# Source text: as §1, with “The cells were grown in Dulbecco's Modified Eagle Medium (D-MEM) containing L-glutamine and sodium pyruvate at 37C under 5% CO-. and saturated humidity. Additives to the medium included 10% heat- inactivated fetal bovine serum, 10 mM nonessential amino acids, 100 units of penicillin and 100 mg of streptomycin per ml of medium. 278 A.L. Elkins, J.G. Eley, M.C.” left out
# Caco-2 cell monolayers [3] = assay: Basal-to-apical transport across Caco-2 cell monolayers; conditions: basal-to-apical
# Source text: TRANSEPITHELIAL TRANSPORT AND METABOLISM OF BORONATED DIPEPTIDES ACROSS CACO-2 AND HCT-8 CELL MONOLAYERS Amy L. Elkins,John G. Eley,3, Merrill C. […] This study examined the effect of boronation on the transepithelial transport and metabolism of three glycine-phenylalanine dipeptides in Caco-2 and HCT-8 cell monolayers. […] Oral delivery of proteins and peptides as therapeutic agents is problematic due to their low bioavailability. This is mainly due to both their poor permeability across cellular barriers and to enzymatic degradation that occurs in the gut lumen, brush border, and enterocyte cytoplasm (2). […] Such as a substitution may also have the potential to alter the in vivo bioavailability of dipeptides. […] This study was undertaken to determine the effect of boronation on the transepithelial transport and metabolism of three glycine-phenylalanine dipeptides. […] Caco-2 cells are human colon adenocarcinoma cells first isolated from a primary colonic tumor (4). The cell line undergoes spontaneous enterortic differentiation in culture after reaching cotfflucnce, and morphologically resembles small intestinal epitheliun after three xveeks in culture (5). These morphological characteristics include the development of a brush border region expressing microvilli, occluding junctions, dome formations, and the formation of tight junctions leading to cell polarity. […]
# [4] = 0.01N NaOH, 37C, 6 hours
# [5] = tested on: various murine and human tissue cultured cancer cells; conditions: cited from earlier work
# [6] = Table 1, 37C static, initial concentration 0.75 mM
# [7] = Table 1, 37C static, initial concentration 1.0 mM
# [8] = Table 1, 37C static, initial concentration 2.5 mM
# [9] = Table 1, 37C static, initial concentration 5.0 mM
# [10] = Table 1, 37C static, initial concentration 7.5 mM
# [11] = Table 2, 37C static, initial concentration 1.0 mM
# [12] = Table 2, 37C static, initial concentration 5.0 mM (fourth row)
# [13] = Table 2, 37C static, initial concentration 7.5 mM
# [14] = Table 10, 37C static, 4 h, initial concentration 0.75 mM
smiles,measurement,setting,value
"COC(=O)[C@H](Cc1ccccc1)NC(=O)[BH2-][N+](C)(C)C [Compound I, N-[(trimethylamine-boryl)-carbonyl]-L-phenylalanine methyl ester]",% of the original ester at 25 hours,[1],96%
same,% Mass Balance,Caco-2 cell monolayers [2]; [6],63.8%
same,% Mass Transported,Caco-2 cell monolayers [2]; [6],62.2%
same,% Mass in Apical Side,Caco-2 cell monolayers [2]; [6],1.6%
same,% Mass Balance,Caco-2 cell monolayers [2]; [7],67.8%
same,% Mass Transported,Caco-2 cell monolayers [2]; [7],60.0%
same,% Mass in Apical Side,Caco-2 cell monolayers [2]; [7],7.8%
same,% Mass Balance,Caco-2 cell monolayers [2]; [8],73.0%
same,% Mass Transported,Caco-2 cell monolayers [2]; [8],64.0%
same,% Mass in Apical Side,Caco-2 cell monolayers [2]; [8],9.0%
same,% Mass Balance,Caco-2 cell monolayers [2]; [9],71.0%
same,% Mass Transported,Caco-2 cell monolayers [2]; [9],62.7%
same,% Mass in Apical Side,Caco-2 cell monolayers [2]; [9],8.3%
same,% Mass Balance,Caco-2 cell monolayers [2]; [10],74.6%
same,% Mass Transported,Caco-2 cell monolayers [2]; [10],66.7%
same,Mass Transported (collected in the basal medium after 4 hours),Caco-2 cell monolayers [2]; [7],0.90
same,Mass Transported (collected in the basal medium after 4 hours),Caco-2 cell monolayers [2]; [8],2.4
same,Mass Transported (collected in the basal medium after 4 hours),Caco-2 cell monolayers [2]; [9],4.7
same,Mass Transported (collected in the basal medium after 4 hours),Caco-2 cell monolayers [2]; [10],7.5
same,Pseudo first-order rate constant k + SD,"Caco-2 cell monolayers [2]; Table 2, 37C static, initial concentration 0.75 mM",1.76 + 0.06 x 104/sec
same,Apparent permeability coefficient Pe + SD,Caco-2 cell monolayers [2]; [11],35.1 ×10⁻⁶ cm/s
same,Pseudo first-order rate constant k + SD,Caco-2 cell monolayers [2]; [11],1.70 + 0.08 x 104/sec
same,Apparent permeability coefficient Pe + SD,"Caco-2 cell monolayers [2]; Table 2, 37C static, initial concentration 2.5 mM",37.5 ×10⁻⁶ cm/s
same,Apparent permeability coefficient Pe + SD,Caco-2 cell monolayers [2]; [12],32 ×10⁻⁶ cm/s
same,Pseudo first-order rate constant k + SD,Caco-2 cell monolayers [2]; [12],1.35 + 0.17 x 104/sec
same,Apparent permeability coefficient Pe + SD,Caco-2 cell monolayers [2]; [13],37.5 ×10⁻⁶ cm/s
same,Pseudo first-order rate constant k + SD,Caco-2 cell monolayers [2]; [13],1.56 + 0.11 x 104/sec
same,% Mass Balance,"Caco-2 cell monolayers [2]; Table 3, 2.5 mM, 4C Rocking",89.3%
same,% Mass Transported,"Caco-2 cell monolayers [2]; Table 3, 2.5 mM, 4C Rocking",48.6%
same,% Mass in Apical Side,"Caco-2 cell monolayers [2]; Table 3, 2.5 mM, 4C Rocking",40.7%
same,% Mass in Apical Side,"Caco-2 cell monolayers [2]; Table 3, 2.5 mM, 37C Rocking",2%
same,% Mass Balance,"Caco-2 cell monolayers [2]; Table 3, 2.5 mM, 37C Static",73.1%
same,% Mass Transported,"Caco-2 cell monolayers [2]; Table 3, 2.5 mM, 37C Static",56.9%
same,Mass Transported (collected in the basal medium after 4 hours),"Caco-2 cell monolayers [2]; Table 3, initial concentration 2.5 mM, 4C Rocking",1.8
same,Mass Transported (collected in the basal medium after 4 hours),"Caco-2 cell monolayers [2]; Table 3, initial concentration 2.5 mM, 37C Rocking",3.0
same,Mass Transported (collected in the basal medium after 4 hours),"Caco-2 cell monolayers [2]; Table 3, initial concentration 2.5 mM, 37C Static",2.1
same,Pseudo first-order rate constant k + SD,"Caco-2 cell monolayers [2]; Table 4, 2.5 mM, 37C Rocking",3.54 + 0.06 x 104/sec
same,Pseudo first-order rate constant k + SD,"Caco-2 cell monolayers [2]; Table 4, 2.5 mM, 37C Static",1.03 + 0.06 x 104/sec
same,% Ester in the basal compartment,Caco-2 cell monolayers [2]; 4C Rocking,74.0%
same,% FA (corresponding free acid) in the basal compartment,Caco-2 cell monolayers [2]; 4C Rocking,none
same,% Ester in the basal compartment,Caco-2 cell monolayers [2]; 4C Static,61.8%
same,% FA (corresponding free acid) in the basal compartment,Caco-2 cell monolayers [2]; 4C Static,none
same,% Ester in the basal compartment,Caco-2 cell monolayers [2]; 37C Static,44.4% and 44%
same,% FA (corresponding free acid) in the basal compartment,Caco-2 cell monolayers [2]; 37C Static,44.4% and 44%
same,mode of transport across the monolayer,Caco-2 cell monolayers [2],passive diffusion
same,compound recovered after transport through Caco-2 cell monolayers,Caco-2 cell monolayers [2]; 4 hours,Approximately 70%
same,recovery after quantitating the free acids at the conclusion of transport experiments,Caco-2 cell monolayers [2],100%
same,ester remaining in the apical compartment,"Caco-2 cell monolayers [2]; side-by-side experiment, 37C static, 4 hours",none
same,unaccounted for as the ester or the respective free acid,HCT-8 cell monolayers; HCT-8 cell monolayers,~45%
same,% Mass Balance,HCT-8 cell monolayers; [14],88.2%
same,% Mass Transported,HCT-8 cell monolayers; [14],77.3%
same,% Mass in Apical Side,HCT-8 cell monolayers; [14],10.9%
same,Mass Transported (collected in the basal medium after 4 hours),"HCT-8 cell monolayers; Table 10, 37C static, initial concentration 0.75 mM",0.87
same,recovery in basal-to-apical transport experiments,Caco-2 cell monolayers [3],100%
same,ester degradation to the free acid,[4],all ofthe ester was degraded
same,cytotoxicity,[5],potent
"COC(=O)[C@H](Cc1ccccc1)NC(=O)[BH2-][NH+](C)C [Compound II, N-[(dimethylamine-boryl)-carbonyl]-L-phenylalanine methyl ester]",% of the original ester at 25 hours,[1],90%
same,% Mass Balance,"Caco-2 cell monolayers [2]; Table 5, 4C Rocking",81.8%
same,% Mass Transported,"Caco-2 cell monolayers [2]; Table 5, 4C Rocking",37.3%
same,% Mass in Apical Side,"Caco-2 cell monolayers [2]; Table 5, 4C Rocking",44.5%
same,% Mass Balance,"Caco-2 cell monolayers [2]; Table 5, 4C Static",79.9%
same,% Mass Transported,"Caco-2 cell monolayers [2]; Table 5, 4C Static",39.3%
same,% Mass in Apical Side,"Caco-2 cell monolayers [2]; Table 5, 4C Static",40.6%
same,% Mass Balance,"Caco-2 cell monolayers [2]; Table 5, 37C Static",57.7%
same,% Mass Transported,"Caco-2 cell monolayers [2]; Table 5, 37C Static",52.7%
same,% Mass in Apical Side,"Caco-2 cell monolayers [2]; Table 5, 37C Static",5.0%
same,Mass Transported (collected in the basal medium after 4 hours),"Caco-2 cell monolayers [2]; Table 5, initial concentration figure not printed (mM), 4C Rocking",0.56
same,Mass Transported (collected in the basal medium after 4 hours),"Caco-2 cell monolayers [2]; Table 5, initial concentration figure not printed (mM), 4C Static",0.59
same,Mass Transported (collected in the basal medium after 4 hours),"Caco-2 cell monolayers [2]; Table 5, initial concentration figure not printed (mM), 37C Static",0.79
same,Apparent permeability coefficient Pe + SD,"Caco-2 cell monolayers [2]; Table 6, 37C Rocking",48 ×10⁻⁶ cm/s
same,Pseudo first-order rate constant k + SD,"Caco-2 cell monolayers [2]; Table 6, 37C Rocking",2.8 + 0.22 x 104/sec
same,% Ester in the basal compartment,Caco-2 cell monolayers [2]; 4C Rocking,55.5%
same,% FA (corresponding free acid) in the basal compartment,Caco-2 cell monolayers [2]; 4C Rocking,inhibited
same,% Ester in the basal compartment,Caco-2 cell monolayers [2]; 4C Static,59.4%
same,% FA (corresponding free acid) in the basal compartment,Caco-2 cell monolayers [2]; 4C Static,inhibited
same,% Ester in the basal compartment,Caco-2 cell monolayers [2]; 37C Static,48.6% and 49%
same,% FA (corresponding free acid) in the basal compartment,Caco-2 cell monolayers [2]; 37C Static,51.5% and 52%
same,mode of transport across the monolayer,Caco-2 cell monolayers [2],passive diffusion
same,compound recovered after transport through Caco-2 cell monolayers,Caco-2 cell monolayers [2]; 4 hours,58%
same,recovery after quantitating the free acids at the conclusion of transport experiments,Caco-2 cell monolayers [2],100%
